Patent US11649460B2, “DNA aptamers, method for inhibiting human galectin-1 and method of treating a mammal in need thereof” (priority 2020, dated 2023)
Read-outs that look alike come from different tables or passages of the source.

Legend:
[1] = tested on: MCF-7 human breast adenocarcinoma cell line; test: SRB cell proliferation (cytotoxicity) assay, MCF-7
Excerpt: (§1) The XLSTAT software was used to determine the IC50, TGI and LC50 values using the four-parameter logistic curve equation.

[2] = tested on: DU-145 human prostate carcinoma cell line; test: SRB cell proliferation (cytotoxicity) assay, DU-145; details: for Relative cell viability (%): human
Excerpt: as §1

[3] = tested on: A-375 human malignant melanoma; test: SRB cell proliferation (cytotoxicity) assay, A-375
Excerpt: as §1

[4] = tested on: HT-29 human colorectal adenocarcinoma; test: SRB cell proliferation (cytotoxicity) assay, HT-29
Excerpt: as §1

[5] = tested on: HCT 116 human colorectal carcinoma; test: SRB cell proliferation (cytotoxicity) assay, HCT 116
Excerpt: as §1

[6] = tested on: SK-BR-3 human breast adenocarcinoma; test: SRB cell proliferation (cytotoxicity) assay, SK-BR-3
Excerpt: as §1

[7] = tested on: OVCAR-3 human ovarian adenocarcinoma cell line; test: SRB cell proliferation (cytotoxicity) assay, OVCAR-3; details: for Relative cell viability (%): human
Excerpt: as §1

in vitro = details: human
Excerpt: as §1

[8] = tested on: NHF human foreskin skin fibroblasts; test: SRB cell proliferation (cytotoxicity) assay, NHF; details: for IC50: read-out: IC50: Concentration to inhibit 50% of cell growth
Excerpt: as §1

[9] = molecular target: T1, hGal1-induced hemagglutination of red blood cells (Homo sapiens, UniProt P09382); test: Hemagglutination inhibition assay, native hGal1; format: cell-based; details: native Gal1 5 μM
T1 construct: 42; made in house; host or cells: E. coli strain M-15
Method: Hemagglutination Inhibition Assay
Hemagglutination assay was adopted to assess the capacity of SEQ ID NO.: 4 in inhibiting the lectin cross-linking aggregation of red blood cells (RBC), as previously described. Briefly, using a 96-well microplates appropriate amounts of 5 μM hGal1 were blended with 50 μL of aptamer in an increasing concentrations manner (0-40 μM) in PBS 1× buffer (pH 7.4). Following, 50 μL of 3% purified type B+ RBC in PBS. After 2 h of room temperature incubation, the plate was photographed and the hemagglutination area was estimated by area calculator Sketchandcalc™ and the results were expressed as relative agglutination.

[10] = molecular target: T2, native human galectin-1 (hGal1) (Homo sapiens, UniProt P09382); test: Thermofluor thermal shift assay (TSA), native galectin-1; format: binding; details: 5 μM protein
T2 construct: 42; made in house; host or cells: E. coli strain M-15
Method: In an attempt to screen among the selected aptamers that better interact with hGal1, differential scanning fluorimetry (Termofluor) was used to characterize their binding to its target. Among all the selected aptamers, SEQ ID NO.: 4 seemed to have a more intense effect on hGal1 thermoshift and so was chosen for further analysis. The selected aptamer had its interaction evaluated with native and alkylated galectin-1. […] The respective thermal displacements were evaluated as a function of an increasing concentration of SEQ ID NO.: 4 (FIG. 1).
Thermofluor experiments were performed on an Mx3005 RT-PCR (Agilent Technologies) using the SYPRO® Orange dye (492/610 nm) (Invitrogen) as fluorescent probe. The purified (native and alkylated) protein samples were incubated for 30 min with increasing concentration of the molecules of interest, centrifuged, and submitted to the thermal denaturation assay, totalizing four distinct experiments. In a 96-well plate (Agilent Technologies) 20 μl of the reaction containing 5 μM of each protein in buffer PBS 1× and 5× SYPRO® Orange were heated from 25° C. to 95° C. at a rate of 1° C./min. The experimental result was processed as in the protocol previously described and the melting temperature was obtained using GraphPad Prism software (www.graphpad.com).

OVCAR-3 cell line = test: Synergism test with cisplatin, OVCAR-3; details: cisplatin 3 μM
Excerpt: For the analysis of cell proliferation, the non-clonogenic method of sulforodamine B (SRB) was used, a protein dye that binds to the basic amino acid residues of cell proteins that were viable at the time of the fixation process. Therefore, the greater the amount of SRB bound per compartment, the less the antiproliferative activity of the item under study.

[11] = Homo sapiens, MCF7, read-out: Relative cell viability (%)
[12] = Homo sapiens, DU-145, read-out: Relative cell viability (%)
[13] = Homo sapiens, A-375, read-out: Relative cell viability (%)
[14] = Homo sapiens, HT-29, read-out: Relative cell viability (%)
[15] = Homo sapiens, HCT-116, read-out: Relative cell viability (%)
[16] = Homo sapiens, SK-BR-3, read-out: Relative cell viability (%)
[17] = Homo sapiens, OVCAR-3, read-out: Relative cell viability (%)
[18] = read-out: IC50: Concentration to inhibit 50% of cell growth, DU-145
[19] = read-out: IC50: Concentration to inhibit 50% of cell growth, HT-29
[20] = read-out: IC50: Concentration to inhibit 50% of cell growth, SK-BR-3

T1 sequence (P09382 2-135): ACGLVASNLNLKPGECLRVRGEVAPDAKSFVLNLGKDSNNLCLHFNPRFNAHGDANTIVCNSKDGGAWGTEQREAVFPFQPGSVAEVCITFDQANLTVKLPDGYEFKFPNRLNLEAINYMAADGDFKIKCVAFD
T2 sequence (P09382 2-135): as above

## CC(=O)O[C@H]1C(=O)[C@@]2(C)[C@H]([C@H](OC(=O)c3ccccc3)[C@]3(O)C[C@H](OC(=O)[C@H](O)[C@@H](NC(=O)c4ccccc4)c4ccccc4)C(C)=C1C3(C)C)[C@]1(OC(C)=O)CO[C@@H]1C[C@@H]2O [Paclitaxel, reference compound]
[1]; Homo sapiens, MCF7, read-out: IC50: Concentration to inhibit 50% of cell growth
  IC50: 0.00282 µM
[1]; [11]
  viability at 0.000781 µM: 87.9%
  viability at 0.001562 µM: 65.5%
  viability at 0.003125 µM: 47.6%
  viability at 0.00625 µM: 36.9%
  viability at 0.0125 µM: 29.3%
  viability at 0.05 µM: 23.6%
  viability at 0.1 µM: 24.7%
[2]; DU-145
  TGI: Concentration for total inhibition of cell growth: 0.013021 µM
[2]; Homo sapiens, DU-145, read-out: IC50: Concentration to inhibit 50% of cell growth
  IC50: 0.0072 µM
[2]; [12]
  viability at 0.000781 µM: 104%
  viability at 0.001562 µM: 95.5%
  viability at 0.003125 µM: 97.3%
  viability at 0.00625 µM: 58.9%
  viability at 0.0125 µM: 8.4%
[2]; 0.05 µM
  Relative cell viability (%): −15.7%
[2]; 0.1 µM
  Relative cell viability (%): −25.6%
[3]; [13]
  viability at 0.000781 µM: 117%
  viability at 0.001562 µM: 96.3%
  viability at 0.003125 µM: 99.4%
  viability at 0.00625 µM: 98.8%
  viability at 0.0125 µM: 113%
  viability at 0.05 µM: 91.2%
  viability at 0.1 µM: 69%
[4]; Homo sapiens, HT-29, read-out: IC50: Concentration to inhibit 50% of cell growth
  IC50: 0.00631 µM
[4]; [14]
  viability at 0.000781 µM: 102%
  viability at 0.001562 µM: 99.1%
  viability at 0.003125 µM: 80.8%
  viability at 0.00625 µM: 48.8%
  viability at 0.0125 µM: 24.5%
  viability at 0.05 µM: 6.7%
  viability at 0.1 µM: 5%
[5]; Homo sapiens, HCT-116, read-out: IC50: Concentration to inhibit 50% of cell growth
  IC50: 0.00646 µM
[5]; [15]
  viability at 0.000781 µM: 96.2%
  viability at 0.001562 µM: 96.6%
  viability at 0.003125 µM: 90.9%
  viability at 0.00625 µM: 50.6%
  viability at 0.0125 µM: 17.5%
  viability at 0.05 µM: 3.4%
  viability at 0.1 µM: 4.7%
[6]; Homo sapiens, SK-BR-3, read-out: IC50: Concentration to inhibit 50% of cell growth
  IC50: 0.0148 µM
[6]; [16]
  viability at 0.000781 µM: 113%
  viability at 0.001562 µM: 113%
  viability at 0.003125 µM: 119%
  viability at 0.00625 µM: 106%
  viability at 0.0125 µM: 68.3%
  viability at 0.05 µM: 12.3%
  viability at 0.1 µM: 13.9%
[7]; Homo sapiens, OVCAR-3, read-out: IC50: Concentration to inhibit 50% of cell growth
  IC50: 0.01 µM
[7]; Homo sapiens, OVCAR-3, read-out: LC50: Concentration for 50% cell death
  CC50: 0.0351 µM
[7]; [17]
  viability at 0.000781 µM: 96.9%
  viability at 0.001562 µM: 90.1%
  viability at 0.003125 µM: 89.6%
  viability at 0.00625 µM: 69.6%
  viability at 0.0125 µM: 31.1%
[7]; OVCAR-3
  TGI: Concentration for total inhibition of cell growth: 0.015402 µM
[7]; 0.05 µM
  Relative cell viability (%): −45.1%
[7]; 0.1 µM
  Relative cell viability (%): −57.5%
In vitro
  CC50: > 0.1 µM
  viability at 0.000781 µM: 86.6%
  viability at 0.001562 µM: 79.7%
  viability at 0.003125 µM: 72.1%
  viability at 0.00625 µM: 61.9%
  viability at 0.0125 µM: 58.6%
  viability at 0.05 µM: 28.7%
  viability at 0.1 µM: 16.9%
[8]; Homo sapiens, Skin fibroblast
  IC50: 0.0187 µM
[8]; NHF
  TGI: Concentration for total inhibition of cell growth: >0.1 µM

## OC[C@H]1O[C@@H](O[C@H]2[C@H](O)[C@@H](O)C(O)O[C@@H]2CO)[C@H](O)[C@@H](O)[C@H]1O (some centres unmarked) [Lactose, reference compound]
[9]
  inhibitory effect on galectin-induced hemagglutination: inhibited hemagglutinating activity

## N.N.[Cl][Pt][Cl] [Cisplatin, reference compound]
[1]; MCF-7
  TGI: Concentration for total inhibition of cell growth: 35.869 µM
[2]; DU-145
  TGI: Concentration for total inhibition of cell growth: <3.906 µM
[2]; [18]
  IC50: < 3.91 µM
[3]; A-375
  TGI: Concentration for total inhibition of cell growth: 7.96 µM
[4]; HT-29
  TGI: Concentration for total inhibition of cell growth: 64.977 µM
[4]; [19]
  IC50: < 3.91 µM
[5]; HCT 116
  TGI: Concentration for total inhibition of cell growth: 15.550 µM
[6]; SK-BR-3
  TGI: Concentration for total inhibition of cell growth: 4.491 µM
[6]; [20]
  IC50: < 3.91 µM
[8]; NHF
  TGI: Concentration for total inhibition of cell growth: 16.139 µM
  IC50: 4.77 µM

B1: AGCTGACACAGCAGGTTGGTGCGCCCAATACAGGCGCAGTATCTGTCCGTGGGCCGGGTAAAAGTTACGGACCGAGTCGAGCAATCTCGAAAT (nucleic acid)
DNA: AGCTGACACAGCAGGTTGGTGCGCCCAATACAGGCGCAGTATCTGTCCGTGGGCCGGGTAAAAGTTACGGACCGAGTCGAGCAATCTCGAAAT
modifications: chemistry not given here
[1]; MCF-7
  TGI: Concentration for total inhibition of cell growth: 48.434 µM
[1]; read-out: IC50: Concentration to inhibit 50% of cell growth, MCF-7
  IC50: 17.8 µM
[1]; read-out: LC50: Concentration for 50% cell death, MCF-7
  CC50: 84.1 µM
[2]; DU-145
  TGI: Concentration for total inhibition of cell growth: 42.423 µM
[2]; [18]
  IC50: 23.4 µM
[2]; read-out: LC50: Concentration for 50% cell death, DU-145
  CC50: 83.5 µM
[3]; A-375
  TGI: Concentration for total inhibition of cell growth: 36.326 µM
[3]; read-out: IC50: Concentration to inhibit 50% of cell growth, A-375
  IC50: 26.3 µM
[3]; read-out: LC50: Concentration for 50% cell death, A-375
  CC50: 51.5 µM
[4]; HT-29
  TGI: Concentration for total inhibition of cell growth: 30.010 µM
[4]; [19]
  IC50: 14.6 µM
[4]; read-out: LC50: Concentration for 50% cell death, HT-29
  CC50: 60.3 µM
[5]; HCT 116
  TGI: Concentration for total inhibition of cell growth: 41.730 µM
[5]; read-out: IC50: Concentration to inhibit 50% of cell growth, HCT 116
  IC50: 16 µM
[5]; read-out: LC50: Concentration for 50% cell death, HCT 116
  CC50: 96.3 µM
[6]; SK-BR-3
  TGI: Concentration for total inhibition of cell growth: 37.529 µM
[6]; [20]
  IC50: 24.3 µM
[6]; read-out: LC50: Concentration for 50% cell death, SK-BR-3
  CC50: 60.2 µM
[7]; OVCAR-3
  TGI: Concentration for total inhibition of cell growth: 37.711 µM
[7]; read-out: IC50: Concentration to inhibit 50% of cell growth, OVCAR-3
  IC50: 11.1 µM
[7]; read-out: LC50: Concentration for 50% cell death, OVCAR-3
  CC50: 87.8 µM
[8]; NHF
  TGI: Concentration for total inhibition of cell growth: 53.452 µM
  IC50: 33.7 µM
[8]; read-out: LC50: Concentration for 50% cell death, NHF
  CC50: 93.6 µM
[10]
  variation of denaturation temperature (Tm) of native hGal1: greater variation
[9]
  inhibitory effect on galectin-induced hemagglutination: better effect
OVCAR-3 cell line
  effect on the profile of antiproliferative activity in association with cisplatin: enhances
